From paper PMC5766630, “Non-estrogenic Xanthohumol Derivatives Mitigate Insulin Resistance and Cognitive Impairment in High-Fat Diet-induced Obese Mice” (Scientific Reports, 2018)

Columns and labels:
[1] = biological target: T1, full-length purified human estrogen receptor ERα (Homo sapiens, UniProt P03372); assay: ERα competitive radiometric binding assay; details: for RBA ERα (relative binding affinity): RBA = IC50[estradiol]/IC50[compound] × 100, estradiol = 100, 2 nM [3H]-estradiol tracer, 18–24 h at 0 °C
T1 construct: full-length purified human estrogen receptors ERα and ERβ
T1 sequence (P03372 1-595): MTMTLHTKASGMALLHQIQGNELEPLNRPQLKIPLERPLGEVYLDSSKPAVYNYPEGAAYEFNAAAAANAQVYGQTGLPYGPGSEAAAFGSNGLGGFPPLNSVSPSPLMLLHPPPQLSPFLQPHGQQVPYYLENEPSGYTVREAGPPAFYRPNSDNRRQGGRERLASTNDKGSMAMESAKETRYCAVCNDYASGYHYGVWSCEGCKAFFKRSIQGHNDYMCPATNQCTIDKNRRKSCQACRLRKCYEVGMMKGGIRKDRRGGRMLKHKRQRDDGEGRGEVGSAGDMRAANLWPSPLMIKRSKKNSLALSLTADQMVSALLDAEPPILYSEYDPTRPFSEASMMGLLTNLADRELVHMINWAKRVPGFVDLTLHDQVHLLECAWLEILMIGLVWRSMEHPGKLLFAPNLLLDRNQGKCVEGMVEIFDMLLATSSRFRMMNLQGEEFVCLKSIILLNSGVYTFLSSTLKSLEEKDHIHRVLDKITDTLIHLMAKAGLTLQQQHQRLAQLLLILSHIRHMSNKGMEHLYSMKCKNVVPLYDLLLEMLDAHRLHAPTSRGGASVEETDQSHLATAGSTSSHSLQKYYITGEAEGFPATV
Protocol: The receptors and ligands were incubated for 18–24 h at 0 °C and then the receptor–ligand complexes separated using hydroxyapatite (BioRad, Hercules, CA, USA).

[2] = biological target: T2, full-length purified human estrogen receptor ERβ (Homo sapiens, UniProt Q92731); assay: ERβ competitive radiometric binding assay; details: for RBA ERβ (relative binding affinity): RBA = IC50[estradiol]/IC50[compound] × 100, estradiol = 100, 2 nM [3H]-estradiol tracer, 18–24 h at 0 °C
T2 construct: full-length purified human estrogen receptors ERα and ERβ
Protocol: . The receptors and ligands were incubated for 18–24 h at 0 °C and then the receptor–ligand complexes separated using hydroxyapatite (BioRad, Hercules, CA, USA). […]

[3] = design: method as in PMID 17517853, PMID 20154334; details: meta-analysis of 42 trials, p = 0.03; cited from earlier work
[4] = test system: progesterone receptor (PGR) expression in MCF-7 cells; assay: Progesterone receptor (PGR) gene expression in MCF-7 cells, real-time PCR; assay type: cell-based, human; details: 20 h; estradiol 1 and 10 nM; 8-PN, XN, DXN, TXN 0.2, 1 and 5 μM; vs 0.1% ethanol
Protocol: MCF-7 cells (American Type Culture Collection, Manassas, VA, USA) were cultured in DMEM (Corning Life Sciences, Tewksbury, MA, USA) supplemented with 10% fetal bovine serum (Corning Life Sciences) and 100 μg/ml penicillin/streptomycin (Invitrogen, Carlsbad, CA, USA). For estrogen-free experiments, cells were seeded in phenol-free DMEM (Gibco/Life Technologies, Grand Island, NY, USA) plus 10% charcoal-dextran-treated FBS (Corning Life Sciences) at 5 × 10^5 cells/well of a 6-well plate. […] Total RNA was isolated using TRIzol (Invitrogen) and converted into cDNA using iScript (Bio-Rad, Hercules, CA, USA). Real-time PCR was performed in triplicate on a CFX-96 (Bio-Rad) using primer-probe assays (IDT Technologies, Coralville, IA, USA) and SsoAdvanced Universal Probes Supermix (Bio-Rad) to quantify progesterone receptor (PGR) and GAPDH levels. The ratio of PGR to GAPDH was calculated as 2^−ΔCt PGR/2^−ΔCt GAPDH. Data were analyzed using a one-way ANOVA (p < 0.05 was considered statistically significant) and a post-hoc Tukey’s multiple comparison test. Induction of the progesterone receptor in MCF-7 cells is one of the indices of estrogenicity of flavonoids such as 8-PN[94].

MCF-7 cells = assay: MCF-7 cell proliferation, sulforhodamine B (SRB) assay; assay type: cell-based, human; details: 0.001–1 µM, 48 h exposure, vs vehicle control
Protocol: The SRB assay has been used to study the effects of phytochemicals such as XN, DXN and 8-PN on cell proliferation of various cancer cell lines, including MCF-7 cells[91],[92]. SRB is a dye that binds to cellular proteins of adherent cells and the absorbance readings are a measure of the number of viable cells (cell mass) attached to the culture plate after incubation with the test compounds (samples) in comparison with vehicle control cells. The cell mass is then extrapolated as a measurement of cell viability and cell proliferation. Increased proliferation of MCF-7 cells is one of the measures of estrogenicity of phytochemicals. MCF-7 cells were plated at 10,000 cells/well in 96-well plates in DMEM medium containing 10% charcoal-stripped FBS and antibiotics. […] After incubation with the test compounds for 48 h, the cell culture medium was removed from each well of the 96-well plate and the cells were fixed for 1 h with 10% trichloroacetic acid. The cells on the plate were washed five with distilled water, air-dried, and then stained with SRB dye (0.4% w/v in 1% acetic acid). Excess dye was removed by washing the plate five times with 1% acetic acid. The plates were air-dried and the adsorbed dye was solubilized in 10 mM Tris buffer for 5 min on a shaker before reading the optical density (OD) at 565 nm. The percentage cell viability/proliferation was calculated as follows: (ODSample−ODZeroblank)/(ODControl−ODZeroblank)×100. Mean values and the coefficient of variation (CV) from six replicate wells were calculated and a one-way ANOVA was used to compare statistical differences between treated and control cells, with p < 0.05 as the level of significance.

C2C12 cells = assay: Seahorse OCR and ECAR measurements (mitochondrial uncoupling); assay type: cell-based, mouse; details: oligomycin 1 μM, C2C12 cells
Protocol: OCR and ECAR measurements were performed with a Seahorse XF 24 Analyzer (Agilent Technologies, Inc., Santa Clara, CA, USA). C2C12 cells were plated in culture medium at a density of 40,000 cells per well in a 24-well plate. The cells were then allowed to adhere for 24 h (37 °C, 5% CO2). Prior to the assay, the cells were washed with freshly prepared running medium consisting of Seahorse XF Assay medium (Agilent Technologies, Inc., Santa Clara, CA, USA), 10 mM glucose and 1 mM sodium pyruvate. The pH of the medium was adjusted to 7.4 with 1 M NaOH. The cells were then equilibrated for one hour at 37 °C without CO2. […] To overcome this problem, the test compounds were first dissolved in ethanol and the resulting solution was diluted 100-fold in treatment medium (9 parts XF media and 1 part 10% FBS media) which was added directly to cells. The treatment medium contained 1% FBS and after a further 10-fold dilution into the media in wells, only 0.1% FBS was present during OCR and ECAR measurements. The final concentrations in the wells were: 1 μM for oligomycin, and 5 μM for XN, DXN or TXN. The concentration of oligomycin and the cell density used were selected based on preliminary experiments. Ethanol was added to the control wells not to exceed a final concentration of 0.1% (vehicle control). OCR and ECAR were measured at 9-min intervals.
Seahorse data: to show a consistent baseline, OCR values (in pmol/min/mg protein) and ECAR values (in mpH/min/mg protein) for each value were divided, prior to statistical analysis, by the average of the four pre oligomycin treatment values (0, 8, 17, and 25 min) for the corresponding well and are shown as % pre oligomycin values. To account for repeated measures within wells over time, we utilized a repeated-measures-in-time design using ANOVA procedures in PROC MIXED (SAS). Fixed effects in the model were treatment (control, 5 μM XN, 5 μM DXN, and 5 μM TXN for the compound study), time (0, 8, 17, 25, 34, 43, 52, 60, 69, 78, 86, and 95 min), and their interaction. The random effect was the experiment (5 experiments for the compound study). To account for repeated measures within wells over time, a first order homogeneous variance-covariance matrix [AR(1)] was fitted for each well. Using the ESTIMATE statement, a priori contrasts were constructed by comparing the changes in compound treated cells from the last two time points prior to compound treatment (average 52 and 60 min) to the changes in control cells during the same time-period. This was carried out for each compound and dosage for 69, 78, 86, and 95 min separately and for all four time points combined. Results are shown in the text and the graphs as least squares means and their corresponding SEM (standard error of mean). […]

T2 sequence (Q92731 whole entry): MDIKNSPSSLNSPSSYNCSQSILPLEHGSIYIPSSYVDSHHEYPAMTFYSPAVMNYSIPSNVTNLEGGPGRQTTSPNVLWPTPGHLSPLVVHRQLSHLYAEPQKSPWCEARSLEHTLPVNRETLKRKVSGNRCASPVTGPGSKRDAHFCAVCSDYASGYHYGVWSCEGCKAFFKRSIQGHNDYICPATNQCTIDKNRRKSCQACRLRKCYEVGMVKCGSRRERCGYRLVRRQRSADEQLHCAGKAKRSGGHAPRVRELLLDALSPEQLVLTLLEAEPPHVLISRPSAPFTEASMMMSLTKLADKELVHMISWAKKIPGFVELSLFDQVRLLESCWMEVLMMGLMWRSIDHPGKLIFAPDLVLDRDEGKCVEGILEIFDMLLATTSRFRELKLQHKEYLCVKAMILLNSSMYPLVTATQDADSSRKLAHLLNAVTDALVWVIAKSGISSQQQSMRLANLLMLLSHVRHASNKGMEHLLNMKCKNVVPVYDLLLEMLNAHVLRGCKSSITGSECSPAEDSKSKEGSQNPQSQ

SMILES	RBA ERα (relative binding affinity) [1]	RBA ERβ (relative binding affinity) [2]	induction of PGR expression [4]	also measured
COc1cc(O)c(CC=C(C)C)c2c1C(=O)CC(c1ccc(O)cc1)O2 (centres unmarked) [IX, Isoxanthohumol, reference compound]	0.0020 ± 0.0002	0.019 ± 0.004		
CN(CCOc1ccc(CC2SC(=O)NC2=O)cc1)c1ccccn1 (centres unmarked) [rosiglitazone]				Increased risk of heart attack [3]: 43%
CC(C)=CCc1c(O)cc(O)c2c1O[C@H](c1ccc(O)cc1)CC2=O [8-PN, 8-prenylnaringenin, reference compound]	0.686 ± 0.18	2.42 ± 0.62	statistically significant induction	fold greater affinity for ERα compared to XN, DXN, and TXN [1]: > 100 fold; fold greater affinity for ERβ compared to XN, DXN, and TXN [2]: > 100 fold; MCF-7 cell viability/proliferation at low concentrations (MCF-7 cells): induced cell proliferation
CC[C@H]1/C=C/C=C/C[C@@H](C)[C@H](O)[C@@](C)(O)C(=O)[C@@H](C)[C@H](O)[C@@H](C)C(=O)[C@@H](C)[C@H](O)[C@@H](C)/C=C/C(=O)O[C@@H]2[C@H](C)[C@H](CC1)O[C@]1(CC[C@H](C)[C@H](C[C@@H](C)O)O1)[C@H]2C [oligomycin, reference compound]				Increase in ECAR (C2C12 cells): 1.6 fold
C[C@]12CC[C@@H]3c4ccc(O)cc4CC[C@H]3[C@@H]1CC[C@@H]2O [estradiol, 17β-estradiol, reference compound]			statistically significant induction	
